This note sets out measurements from ChEMBL document CHEMBL3352546, “KDM4B as a target for prostate cancer: structural analysis and selective inhibition by a novel inhibitor” (J Med Chem, 2014).

One series deals with LNCaP. Kind of series: Cytotoxicity against human LNCAP cells after 3 days by MTT assay. It is filed as functional, cell-based. Particulars: 72 h.
Series [1] concerns the target T1, Lysine-specific demethylase 4E (Homo sapiens) (UniProt B2RXH2).
T1 sequence (whole entry): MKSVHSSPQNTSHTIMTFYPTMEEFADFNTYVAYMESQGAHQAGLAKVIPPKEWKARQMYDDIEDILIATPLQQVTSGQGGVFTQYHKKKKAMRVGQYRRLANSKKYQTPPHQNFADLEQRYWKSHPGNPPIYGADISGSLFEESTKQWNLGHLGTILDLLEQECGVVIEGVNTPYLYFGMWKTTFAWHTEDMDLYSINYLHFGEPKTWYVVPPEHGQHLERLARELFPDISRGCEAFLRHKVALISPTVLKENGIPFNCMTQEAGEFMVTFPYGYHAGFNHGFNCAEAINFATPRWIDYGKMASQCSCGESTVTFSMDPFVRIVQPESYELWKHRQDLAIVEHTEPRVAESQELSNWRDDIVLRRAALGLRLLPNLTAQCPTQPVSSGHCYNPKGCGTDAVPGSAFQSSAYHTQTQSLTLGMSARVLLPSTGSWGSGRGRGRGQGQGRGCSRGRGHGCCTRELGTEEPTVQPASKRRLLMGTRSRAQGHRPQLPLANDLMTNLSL
The series is described as follows: Inhibition of purified recombinant KDM4E (1 to 347 aa) (unknown origin) expressed in Escherichia coli using H3K9me3 peptide as substrate after 30 mins by FDH-coupled assay.

In series [2] the target is T2, Lysine-specific demethylase 4D (Homo sapiens) (UniProt Q6B0I6).
T2 sequence (whole entry): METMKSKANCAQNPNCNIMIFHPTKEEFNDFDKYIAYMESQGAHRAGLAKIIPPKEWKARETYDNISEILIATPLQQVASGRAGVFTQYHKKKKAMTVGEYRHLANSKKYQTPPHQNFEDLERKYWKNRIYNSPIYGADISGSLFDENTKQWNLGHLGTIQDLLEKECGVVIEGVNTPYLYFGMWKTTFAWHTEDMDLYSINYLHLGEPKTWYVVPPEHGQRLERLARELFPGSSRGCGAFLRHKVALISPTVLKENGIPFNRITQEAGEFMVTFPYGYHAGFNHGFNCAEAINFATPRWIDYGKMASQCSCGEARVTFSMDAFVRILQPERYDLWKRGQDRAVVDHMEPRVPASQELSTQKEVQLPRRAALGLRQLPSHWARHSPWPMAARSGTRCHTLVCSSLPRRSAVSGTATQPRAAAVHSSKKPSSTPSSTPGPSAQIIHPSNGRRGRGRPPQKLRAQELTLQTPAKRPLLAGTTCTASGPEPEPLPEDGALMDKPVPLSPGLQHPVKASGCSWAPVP
Kind of series: Inhibition of purified recombinant KDM4D (1 to 350 aa) (unknown origin) expressed in Escherichia coli using H3K9me3 peptide as substrate after 30 mins by FDH-coupled assay.

Series [3] is described as follows: Cytotoxicity against human PNT2 cells at 5 to 20 uM measured over 6 days by MTT assay. The conditions noted are these: pnt2, 144 h. The series is classed as cell-based. (In general: Formazan colour is commonly taken as a measure of viable cells.)

Activity calls are given as the source filed them. The rule behind the calls is not given here.

Consider `O=C(O)c1ccnc(C(=O)O)c1`, for which, in the series on LNCaP, the CC50 (usually the concentration giving 50% cytotoxicity) came to 589 µM. Moreover, the inhibition result in series [1] and in series [2] was “Active” throughout.

With `O=[N+]([O-])c1cc([N+](=O)[O-])c(/C=C/c2ccc(Cl)c(Cl)c2)cc1/C=C/c1ccc(Cl)c(Cl)c1`, the Activity result in series [3] was “Non-toxic”. The inhibition result in series [1] and in series [2] was “inactive” throughout.
